Experimental findings from article PMC7059199, “Identification and structural insight of an effective PPARγ modulator with improved therapeutic index for anti-diabetic drug discovery” (Chemical Science, 2020) are described below.

In one data set the target is T1, full-length hPPARγ (Homo sapiens, UniProt P37231).
T1 construct: 50 ng of full-length hPPARγ plasmids; expressed in transfected cells; host or cells: Cos-7 cells (ATCC)
T1 sequence (P37231 1-505): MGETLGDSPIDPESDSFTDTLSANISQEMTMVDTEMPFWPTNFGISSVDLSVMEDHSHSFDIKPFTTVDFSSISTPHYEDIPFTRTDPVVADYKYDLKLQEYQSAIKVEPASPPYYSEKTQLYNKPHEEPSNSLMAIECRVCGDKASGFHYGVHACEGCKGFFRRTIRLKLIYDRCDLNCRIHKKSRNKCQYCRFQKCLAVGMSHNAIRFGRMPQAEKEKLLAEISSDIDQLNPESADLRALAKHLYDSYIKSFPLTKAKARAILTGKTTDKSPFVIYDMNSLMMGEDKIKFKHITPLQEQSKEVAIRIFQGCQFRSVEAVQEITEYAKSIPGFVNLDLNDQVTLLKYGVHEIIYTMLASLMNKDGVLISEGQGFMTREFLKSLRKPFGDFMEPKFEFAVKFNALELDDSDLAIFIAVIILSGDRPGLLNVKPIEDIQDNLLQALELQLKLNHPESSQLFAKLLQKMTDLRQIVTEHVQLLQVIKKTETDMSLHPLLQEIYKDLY
Nature of the data set: PPARγ-activated luciferase reporter (transactivation) assay in Cos-7 cells. The format is cell-based. The following applies: at 33 μM and 100 μM. Here is the method:
Fig. 3 Luciferase reporter assay of PPARγ activation in Cos-7 cells. The luciferase activity was normalized against renilla luciferase units. Fold activation was calculated against DMSO with no ligand treatment. […] Concentration is represented as log10 scale (n = 3, error bars = SEM). […]
and 25 mM of imidazole) per 6 liters of cells, and passed three times through a French press with pressure set at […]. The lysate was cleared by centrifugation at 48,000 x g for 30 minutes and the supernatant was purified by loading on 2x5 mL HiLoad Nickel HP columns (GE Healthcare). The 6×His SUMO tag was removed by cleavage with the Sumo protease Ulp1 at a protease: protein ratio of 1:1000), and the tag was separated from the PPARγ LBD by a second pass through the Nickel column. PPARγ monomer was further purified by gel filtration (HiLoad 26/60 Superdex 200 (GE Healthcare)) with 20 mM of Tris (pH 8.0), 100 mM of NaCl, and 5 mM of DTT as buffer. The PPARγ LBD protein was complexed with PGC1α1 peptide […]
([…]) at a 1:1.2 molar ratio and with compound at a 1:5 molar ratio and then filter-concentrated to 10 mg/mL.
Cell-based transactivation assay […]
Excitation of the terbium at 340 nm results in FRET to the fluorescent tracer, with emissions detected at 520 nm and 495 nm. […]
The inhibition constant (ki) for a competitor was calculated by applying the […]

Another data set concerns 3T3-L1 cells. Put plainly: 3T3-L1 adipocyte differentiation assay (Oil Red O staining). The class given is cell-based, mouse. Here is the method: One of the best documented side-effects of the PPARγ agonist drugs is weight gain as PPARγ is the key activator of adipogenesis. To determine whether VSP-77 promotes adipogenesis, we treated mouse fibroblast 3T3-L1 cells with 100 μM of VSP-77. […] Cells were incubated with Oil Red O, which stains adipocytes red.
Fig. 6 3T3-L1 adipocyte differentiation assay. Oil Red O staining of 3T3-L1 fibroblast cells after differentiating with different ligands for 2 days. […]
Adipocyte differentiation assay
The adipocyte differentiation assay was performed with NIH 3T3-L1 preadipocytes obtained from ATCC. The 3T3-L1 preadipocytes were maintained in DMEM containing 10% FBS and antibiotics. For differentiation DMI (Dexamethazone 1 μM, 3-isobutyl-1-methyxanthine (IBMX) 0.5 mM and Insulin167 nM) and 10 μM of rosiglitazone were used as positive controls for the assay. VSP-77 was used at a 100 μM concentration. All the treatments have insulin at 167 nM concentration. Media with DMSO was used as a negative control. Differentiation was induced by treating post-confluent cultures with media containing the respective ligands for two days.
Cells were stained with Oil Red O to estimate the lipid accumulation. The images were analyzed using ImageJ (National Institutes of Health). […]

Data set [1] is described as follows: Pharmacokinetic profile in mice. The format is in vivo. The protocol:
VSP-77 was further evaluated for its preliminary pharmacokinetic profile in mice following oral (10 mg kg^–1) and intravenous (5 mg kg^–1) administration (Table S2 ^†).

[2] abbreviates: mouse, in vivo, intravenous 5 mg/kg.
Setting [3] is: mouse, in vivo, oral (ig) 10 mg/kg.
Where [4] appears, read: oral 10 mg/kg, unit as printed in main text.

Turning to `CCCCCCCC(OCC(=O)O)c1ccc(Cl)cc1` (centres unmarked) [VSP-77], the “agonistic activity (fold activation of luciferase reporter)” value on full-length hPPARγ was “weakly agonistic”. Moreover, in the data set on 3T3-L1 cells (100 μM), the “adipogenesis (in words)” value is “does not activate adipogenesis”. Moreover, the “total number of adipocytes when added to DMI- or Rosi-treated cells” value in the data set with 3T3-L1 cells (VSP-77 100 μM) is “clear decrease”. The “% Area stained by Oil Red O” value in the data set with 3T3-L1 cells (VSP-77 100 μM, 2 days) is on record as 0%. In data set [1] (setting [2]), this compound gave a total exposure AUC(0-inf) of 5030 ng·h/mL, an AUC(0-t) of 5000 ng·h/mL, an MRT of 1.11 h and a half-life of 1.07 h. In data set [1] (setting [3]), the total exposure AUC(0-inf) turned out to be 5880 ng·h/mL, the AUC(0-t) is 5770 ng·h/mL, the Cmax was 2920 ng/mL and the MRT is 1.94 h. In addition, in data set [1] (setting [3]), the Tmax worked out at 0.5 h and the half-life was 1.25 h. In addition, the bioavailability in data set [1] (mouse, in vivo, oral (ig) 10 mg/kg vs iv 5 mg/kg, read-out: F (oral bioavailability)) was determined as 57.7%. In data set [1] (setting [4]), the “AUC0–t” value was 5772 ng mL^–1 h^–1 and the “AUC0–∞” value is reported as 5877 ng mL^–1 h^–1.
